Test results published in patent US20260258050A1, “IMMUNOMODULATOR” (HITGEN INC., priority 2023, published 2026).

How the values were obtained:
Human IL-17A [1] = target: T1, Human IL-17A (Homo sapiens, UniProt Q16552); assay: IL-17A enzyme-linked immunosorbent assay (competitive ELISA, IL-17A/IL-17Ra receptor-ligand binding); set-up: purchased Sino Biological Inc. 12047-H07B; details: human IL-17A coated plate, human IL-17Ra, read-out: IC50, inhibitory activity of compounds on human IL-17A
T1 sequence (Q16552 20-155 limits assumed): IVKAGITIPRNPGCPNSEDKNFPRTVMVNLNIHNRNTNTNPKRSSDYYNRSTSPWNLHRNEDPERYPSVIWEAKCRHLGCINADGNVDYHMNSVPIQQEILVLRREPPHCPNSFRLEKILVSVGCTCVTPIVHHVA
Summary of the method: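 Competitive ELISA with plates coated with human IL-17A at 0.2 μg/ml, blocked with 5% skim milk. Compound pre-incubated with IL-17A 10 min at 25 °C, then 16 nM IL-17Ra stock added for 30 min. Bound receptor detected by anti-Fc HRP/TMB, A450. IC50 from variable-slope fit of blank-corrected residual activity.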

Human IL-17A [2] = target: T1, Human IL-17A; assay: Inhibition of human IL-17A protein-induced GROα/CXCL1 production in HT-29 cells; assay type: cell-based; set-up: purchased R&D 317-ILB; host or cells: added exogenously to HT-29 cells; details: 30 ng/mL human IL-17A protein, 48 h, GROα in supernatant by ELISA kit, read-out: Inhibitory IC50 of compounds on HT-29 cell GROα/CXCL1
Summary of the method: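 Compound dilutions were preincubated 1 h at 37 °C with 30 ng/mL human IL-17A, then added to HT-29 cells (5×10^4/well) for 48 h at 37 °C. GROα in supernatant quantified by ELISA; IC50 for inhibition of its production. Positive control: IL-17A antibody at […].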

IC50 (Human IL-17A [1]) [nM]	IC50 (Human IL-17A [2]) [nM]	SMILES
≤ 50	100 to 500	Cc1[nH]nc2c1-c1ccc(NC(=O)[C@@H](NC(=O)c3ccnn3C3CC3)C(C3CC3)C3CC3)cc1COCC2 [compound 6]
≤ 50	≤ 100	Cc1[nH]nc2c1-c1cc(F)c(NC(=O)[C@@H](NC(=O)c3ccnn3C(C)C)C(C3CC3)C3CC3)cc1CN(C)C(=O)C2 [compound 132]
≤ 50	≤ 100	CCN1Cc2cc(NC(=O)[C@@H](NC(=O)c3ccnn3CC)C(C3CC3)C3CC3)c(F)cc2-c2c(n[nH]c2C)CC1=O [compound 143]
≤ 50	≤ 100	Cc1[nH]nc2c1-c1cc(F)c(NC(=O)[C@@H](NC(=O)c3ccnn3C(C)C)C(C3CC3)C3CC3)cc1CN(C(C)C)C(=O)C2 [compound 150]
≤ 50	≤ 100	CCn1nccc1C(=O)N[C@H](C(=O)Nc1cc2c(cc1F)-c1c(n[nH]c1C)CC(=O)N(C(C)C)C2)C(C1CC1)C1CC1 [compound 151]
≤ 50	≤ 100	Cc1[nH]nc2c1-c1cc(F)c(NC(=O)[C@@H](NC(=O)c3ccnn3C(C)C)C(C3CC3)C3CC3)cc1CN(CC1CC1)C(=O)C2 [compound 153]
≤ 50	100 to 500	CCN1CCc2n[nH]c(C)c2-c2cc(F)c(NC(=O)[C@@H](NC(=O)c3ccnn3C(C)C)C(C3CC3)C3CC3)cc2C1 [compound 156]
≤ 50	≤ 100	Cc1[nH]nc2c1-c1cc(F)c(NC(=O)[C@@H](NC(=O)c3ccnn3C(C)C)C(C3CC3)C3CC3)cc1CN(CC(F)F)CC2 [compound 158]
≤ 50	≤ 100	CCn1nccc1C(=O)N[C@H](C(=O)Nc1cc2c(cc1F)-c1c(n[nH]c1C)CCN(CC(C)(F)F)C2)C(C1CC1)C1CC1 [compound 161]

Further lines, the molecule ahead of its results:

SMILES	IC50 (Human IL-17A [1]) [nM]	IC50 (Human IL-17A [2]) [nM]
CCn1nccc1C(=O)N[C@H](C(=O)Nc1ccc2c(c1)COCCc1n[nH]c(C)c1-2)C(C1CC1)C1CC1 [compound 3]	≤ 50	≤ 100
Cc1[nH]nc2c1-c1cnc(NC(=O)[C@@H](NC(=O)c3ccnn3C[C@@H]3C[C@H]3F)C(C3CC3)C3CC3)cc1COCC2 [compound 125]	≤ 50	≤ 100
CCn1nccc1C(=O)N[C@H](C(=O)Nc1cc2c(cc1F)-c1c(n[nH]c1C)CC(=O)N(C)C2)C(C1CC1)C1CC1 [compound 133]	≤ 50	100 to 500
Cc1[nH]nc2c1-c1cc(F)c(NC(=O)[C@@H](NC(=O)c3ccnn3C(C)C)C(C3CC3)C3CC3)cc1CN(C1CC1)C(=O)C2 [compound 136]	≤ 50	≤ 100
CCN1Cc2cc(NC(=O)[C@@H](NC(=O)c3ccnn3C(C)C)C(C3CC3)C3CC3)c(F)cc2-c2c(n[nH]c2C)CC1=O [compound 142]	≤ 50	≤ 100
Cc1[nH]nc2c1-c1cc(F)c(NC(=O)[C@@H](NC(=O)c3ccnn3C(C)C)C(C3CC3)C3CC3)cc1CN(CC(F)F)C(=O)C2 [compound 144]	≤ 50	≤ 100
CCn1nccc1C(=O)N[C@H](C(=O)Nc1cc2c(cc1F)-c1c(n[nH]c1C)CC(=O)N(CC(F)F)C2)C(C1CC1)C1CC1 [compound 145]	≤ 50	≤ 100
Cc1[nH]nc2c1-c1cc(F)c(NC(=O)[C@@H](NC(=O)c3ccnn3C(C)C)C(C3CC3)C3CC3)cc1CN(CC(C)(F)F)C(=O)C2 [compound 148]	≤ 50	≤ 100
CCn1nccc1C(=O)N[C@H](C(=O)Nc1cc2c(cc1F)-c1c(n[nH]c1C)CC(=O)N(CC(C)(F)F)C2)C(C1CC1)C1CC1 [compound 149]	≤ 50	≤ 100
Cc1[nH]nc2c1-c1cc(F)c(NC(=O)[C@@H](NC(=O)c3ccnn3C(C)C)C(C3CC3)C3CC3)cc1CN(CC(F)(F)F)C(=O)C2 [compound 152]	≤ 50	≤ 100
CCn1nccc1C(=O)N[C@H](C(=O)Nc1cc2c(cc1F)-c1c(n[nH]c1C)CCN(CC(F)F)C2)C(C1CC1)C1CC1 [compound 159]	≤ 50	≤ 100
Cc1[nH]nc2c1-c1cc(F)c(NC(=O)[C@@H](NC(=O)c3ccnn3C(C)C)C(C3CC3)C3CC3)cc1CN(CC(C)(F)F)CC2 [compound 160]	≤ 50	≤ 100
Cc1[nH]nc2c1-c1cc(F)c(NC(=O)[C@@H](NC(=O)c3ccnn3C(C)C)C(C3CC3)C3CC3)cc1CN(CC(F)(F)F)CC2 [compound 164]	≤ 50	≤ 100
Cc1[nH]nc2c1-c1cc(F)c(NC(=O)[C@@H](NC(=O)c3ccnn3C(C)C)C(C3CC3)C3CC3)cc1CN(C1CC1)CC2 [compound 165]	≤ 50	≤ 100
